What was measured:
Test in all cases: relative viability (nuclei count vs DMSO), 5 days (fraction); higher = more cells survive
[1] = tested on: NCI-H1651
Outline: (§1)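 Relative viability was taken as the ratio of nuclei in treated wells to nuclei in vehicle wells. Lung cancer cell lines in 1536-well plates received compounds by pin tool one day after seeding, either one drug alone or a fixed anchor-drug dose plus five library-drug doses (not always all listed) in √10 steps. Nuclei were counted on 4× images after 5 days of treatment, and values are medians of duplicate plates.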

[2] = tested on: NCI-H1437
Outline: as §1

[3] = tested on: CAL-12T
Outline: as §1

[4] = tested on: NCI-H358
Outline: as §1

[5] = tested on: BEN
Outline: as §1

[6] = tested on: SK-LU-1
Outline: as §1

[7] = tested on: HCC-366
Outline: as §1

[8] = tested on: NCI-H1734
Outline: as §1

[9] = tested on: COR-L23
Outline: as §1

[10] = tested on: LU99A
Outline: as §1

[11] = tested on: NCI-H460
Outline: as §1

[12] = tested on: LOU-NH91
Outline: as §1

[13] = tested on: NCI-H441
Outline: as §1

[14] = tested on: NCI-H2023
Outline: as §1

[15] = tested on: NCI-H1355
Outline: as §1

[16] = tested on: NCI-H1975
Outline: as §1

[17] = tested on: NCI-H1650
Outline: as §1

[18] = tested on: NCI-H2085
Outline: as §1

[19] = tested on: NCI-H1793
Outline: as §1

[20] = tested on: NCI-H838
Outline: as §1

[21] = tested on: NCI-H2342
Outline: as §1

## Nc1ccn([C@@H]2O[C@H](CO)[C@@H](O)[C@@H]2O)c(=O)n1 [Cytarabine] + Cc1cc(Nc2cc(N3CCN(C)CC3)nc(Sc3ccc(NC(=O)C4CC4)cc3)n2)n[nH]1 [Tozasertib] (partner 0.1 µM)
[1]; first compound 0.005 µM
  relative viability: 0.688
[1]; first compound 0.01581 µM
  relative viability: 0.707
[1]; first compound 0.05 µM
  relative viability: 0.746
[1]; first compound 0.1581 µM
  relative viability: 0.577
[1]; first compound 0.5 µM
  relative viability: 0.206
[2]; first compound 0.005 µM
  relative viability: 0.295
[2]; first compound 0.01581 µM
  relative viability: 0.355
[2]; first compound 0.05 µM
  relative viability: 0.365
[2]; first compound 0.1581 µM
  relative viability: 0.251
[2]; first compound 0.5 µM
  relative viability: 0.175
[3]; first compound 0.005 µM
  relative viability: 0.249
[3]; first compound 0.01581 µM
  relative viability: 0.323
[3]; first compound 0.05 µM
  relative viability: 0.27
[3]; first compound 0.1581 µM
  relative viability: 0.303
[3]; first compound 0.5 µM
  relative viability: 0.2
[4]; first compound 0.005 µM
  relative viability: 0.102
[4]; first compound 0.01581 µM
  relative viability: 0.0922
[4]; first compound 0.05 µM
  relative viability: 0.1
[4]; first compound 0.1581 µM
  relative viability: 0.097
[4]; first compound 0.5 µM
  relative viability: 0.0847
[5]; first compound 0.005 µM
  relative viability: 0.427
[5]; first compound 0.01581 µM
  relative viability: 0.519
[5]; first compound 0.05 µM
  relative viability: 0.569
[5]; first compound 0.1581 µM
  relative viability: 0.63
[5]; first compound 0.5 µM
  relative viability: 0.563
[6]; first compound 0.005 µM
  relative viability: 0.301
[6]; first compound 0.01581 µM
  relative viability: 0.325
[6]; first compound 0.05 µM
  relative viability: 0.279
[6]; first compound 0.1581 µM
  relative viability: 0.185
[6]; first compound 0.5 µM
  relative viability: 0.189
[7]; first compound 0.005 µM
  relative viability: 0.149
[7]; first compound 0.01581 µM
  relative viability: 0.119
[7]; first compound 0.05 µM
  relative viability: 0.0834
[7]; first compound 0.1581 µM
  relative viability: 0.0612
[7]; first compound 0.5 µM
  relative viability: 0.0652
[8]; first compound 0.005 µM
  relative viability: 0.245
[8]; first compound 0.01581 µM
  relative viability: 0.232
[8]; first compound 0.05 µM
  relative viability: 0.178
[8]; first compound 0.1581 µM
  relative viability: 0.117
[8]; first compound 0.5 µM
  relative viability: 0.112
[9]; first compound 0.005 µM
  relative viability: 0.164
[9]; first compound 0.01581 µM
  relative viability: 0.141
[9]; first compound 0.05 µM
  relative viability: 0.159
[9]; first compound 0.1581 µM
  relative viability: 0.123
[9]; first compound 0.5 µM
  relative viability: 0.129
[10]; first compound 0.005 µM
  relative viability: 0.263
[10]; first compound 0.01581 µM
  relative viability: 0.273
[10]; first compound 0.05 µM
  relative viability: 0.275
[10]; first compound 0.1581 µM
  relative viability: 0.288
[10]; first compound 0.5 µM
  relative viability: 0.281
[11]; first compound 0.005 µM
  relative viability: 0.438
[11]; first compound 0.01581 µM
  relative viability: 0.362
[11]; first compound 0.05 µM
  relative viability: 0.196
[11]; first compound 0.1581 µM
  relative viability: 0.0434
[11]; first compound 0.5 µM
  relative viability: 0.0361
[12]; first compound 0.005 µM
  relative viability: 0.555
[12]; first compound 0.01581 µM
  relative viability: 0.53
[12]; first compound 0.05 µM
  relative viability: 0.672
[12]; first compound 0.1581 µM
  relative viability: 0.411
[12]; first compound 0.5 µM
  relative viability: 0.514
[13]; first compound 0.005 µM
  relative viability: 0.557
[13]; first compound 0.01581 µM
  relative viability: 0.637
[13]; first compound 0.05 µM
  relative viability: 0.597
[13]; first compound 0.1581 µM
  relative viability: 0.389
[13]; first compound 0.5 µM
  relative viability: 0.323
[14]; first compound 0.005 µM
  relative viability: 0.238
[14]; first compound 0.01581 µM
  relative viability: 0.223
[14]; first compound 0.05 µM
  relative viability: 0.176
[14]; first compound 0.1581 µM
  relative viability: 0.101
[14]; first compound 0.5 µM
  relative viability: 0.0955
[15]; first compound 0.005 µM
  relative viability: 0.52
[15]; first compound 0.01581 µM
  relative viability: 0.524
[15]; first compound 0.05 µM
  relative viability: 0.484
[15]; first compound 0.1581 µM
  relative viability: 0.269
[15]; first compound 0.5 µM
  relative viability: 0.314
[16]; first compound 0.005 µM
  relative viability: 0.681
[16]; first compound 0.01581 µM
  relative viability: 0.799
[16]; first compound 0.05 µM
  relative viability: 0.728
[16]; first compound 0.1581 µM
  relative viability: 0.317
[16]; first compound 0.5 µM
  relative viability: 0.206
[17]; first compound 0.005 µM
  relative viability: 0.294
[17]; first compound 0.01581 µM
  relative viability: 0.33
[17]; first compound 0.05 µM
  relative viability: 0.303
[17]; first compound 0.1581 µM
  relative viability: 0.26
[17]; first compound 0.5 µM
  relative viability: 0.213
[18]; first compound 0.005 µM
  relative viability: 0.809
[18]; first compound 0.01581 µM
  relative viability: 0.806
[18]; first compound 0.05 µM
  relative viability: 0.844
[18]; first compound 0.1581 µM
  relative viability: 0.694
[18]; first compound 0.5 µM
  relative viability: 0.719
[19]; first compound 0.005 µM
  relative viability: 0.346
[19]; first compound 0.01581 µM
  relative viability: 0.32
[19]; first compound 0.05 µM
  relative viability: 0.333
[19]; first compound 0.1581 µM
  relative viability: 0.291
[19]; first compound 0.5 µM
  relative viability: 0.332
[20]; first compound 0.005 µM
  relative viability: 0.29
[20]; first compound 0.01581 µM
  relative viability: 0.319
[20]; first compound 0.05 µM
  relative viability: 0.231
[20]; first compound 0.1581 µM
  relative viability: 0.231
[20]; first compound 0.5 µM
  relative viability: 0.161
[21]; first compound 0.005 µM
  relative viability: 0.507
[21]; first compound 0.01581 µM
  relative viability: 0.616
[21]; first compound 0.05 µM
  relative viability: 0.496
[21]; first compound 0.1581 µM
  relative viability: 0.506
[21]; first compound 0.5 µM
  relative viability: 0.459

Reference: the supplement of paper PMC10307832
